Test results reported in paper PMC12673918, “Design, Synthesis, and Selective Antiproliferative Activity of Indolizine Derivatives as Microtubule Destabilizers” (Archiv Der Pharmazie, 2025).

Test system: tubulin
Experiment: Tubulin polymerization (inhibition) assay kit
Assay type: biochemical
Conditions: for effect on tubulin polymerization curves (RFU): compounds 5 µM, vs control and paclitaxel; for IC50: n = 2
Experimental: To evaluate the effect of the compounds on tubulin polymerization, the Tubulin Polymerization Assay Kit (Cytoskeleton Inc.) was used according to the manufacturer's instructions. Briefly, 5 µL of the compounds (final concentration ranging from 0.1 to 100 µM) were pipetted per well into a pre‐warmed 96‐well black‐bottom plate at 37°C. After 1 min, 55 µL of the tubulin reaction mix (1X Buffer 1, 0.7X Tubulin Glycerol Buffer, 1 mM GTP, and 2 mg/mL tubulin) was added to each well. Next, after 5 s of shaking, fluorescence detection (excitation: 340–360 nm, emission: 410–460 nm) was performed using a microplate fluorimeter. […] Data were plotted, and IC₅₀ values were determined by nonlinear regression using GraphPad Prism software 9.0.
^c Tubulin polymerization was evaluated using a commercial assay kit, following standard procedures. Compounds were incubated with tubulin, and fluorescence was measured over time to generate kinetic curves and determine the maximum polymerization rate (Vmax). These experiments were carried out in duplicate.

SMILES: COc1ccc2c(C(=O)c3cc(OC)c(OC)c(OC)c3)c(C(F)(F)F)cn2c1 [Compound 8e, [6‐methoxy‐2‐(trifluoromethyl)indolizin‐1‐yl](3,4,5‐trimethoxyphenyl)methanone]
- effect on tubulin polymerization curves (RFU): most potent
- IC50: 9.3 µM

SMILES: CCCc1cn2cc(OC)ccc2c1C(=O)c1cc(OC)c(OC)c(OC)c1 [Compound 8h, (6‐methoxy‐2‐propylindolizin‐1‐yl)(3,4,5‐trimethoxyphenyl)methanone]
- effect on tubulin polymerization curves (RFU): most potent
- IC50: 10.9 µM
